These results are taken from US20250144179A1, “PEPTIDE HORMONE TO PREVENT OR TREAT VASOSPASM, BRAIN INJURY OR CEREBRAL EDEMA” (UNIVERSITY OF FLORIDA RESEARCH FOUNDATION, INCORPORATED, priority 2022, published 2025).

What all share (assay type): in vivo, mouse
For one assay, the system named is occludin. Briefly: Western blot of occludin in brain after SAH. Conditions: wild-type mice, adropin 450 nmol/kg i.p. vs vehicle. The method, then: (§1) Synthetic adropin^34-76 peptide was supplied from Bachem (Bubendorf, Switzerland) and diluted in 0.1% BSA in saline. 0.1% BSA in saline was used as vehicle control for all experiments. Adropin (450 nmol/kg) or an equivalent volume of vehicle was delivered via intraperitoneal injection 15 minutes post-SAH. For experiments ending at 24 hours post-SAH, an identical dose of adropin/vehicle was given again 12 hours later. For experiments ending 7 days post-SAH, adropin/vehicle was given again on days 1, 3 & 5 post-SAH. In the aneurysm rupture model, adropin was given at a dose of 450 nmol/kg starting 3 days before aneurysm induction (elastase injection). Adropin was given every other day until sacrifice
(§2) SAH was modeled using the anterior circulation single autologous blood injection method^25,33 with minor adjustments. Mice were anesthetized with ketamine (100 mg/kg) and xylazine (10 mg/kg) before removing hair from scalp and cleaning with serial betadine—saline washes. The tail was also prepped from the base extending 1 cm distally. Mice were then fixed into a stereotaxic frame and body temperature maintained at 37° C. The scalp was incised along the sagittal suture from bregma to the nasal bone. […]
(§3) At 24 hours or 7 days post-SAH, mice were deeply anesthetized and perfused with 10 mL of ice-cold PBS. […] Samples were centrifuged, supernatant collected, and protein quantified via Bradford assay. […]
(A western blot detects proteins with antibodies after separation by electrophoresis.)

A further assay has as its system ZO-1. Briefly: Western blot of ZO-1 in brain after SAH. To be noted: wild-type mice, adropin 450 nmol/kg i.p. vs vehicle. How it is done:
as §1, §2, §3

Assay [1] has as its system wild-type mice, SAH model. Briefly: Brain water content (cerebral edema) after SAH. To be noted: 24 hours post-SAH, adropin 450 nmol/kg i.p. How it is done:
as §1
SAH was modeled using the anterior circulation single autologous blood injection method^25,33 with minor adjustments. Mice were anesthetized with ketamine (100 mg/kg) and xylazine (10 mg/kg) before removing hair from scalp and cleaning with serial betadine—saline washes. The tail was also prepped from the base extending 1 cm distally. Mice were then fixed into a stereotaxic frame and body temperature maintained at 37° C. […]
Brain water content was measured using the wet weight—dry weight method.^34 Twenty-four hours post-SAH, brains were removed from the skull and the olfactory lobe and hindbrain were removed from the cortex and midbrain. […]

With “adropin (CHSRSADVDSLSESSPNSSPGPCPEKAPPPQKPSHEGSYLLQP) [Synthetic adropin^34-76 peptide from Bachem]”, in the assay on occludin, the “occludin expression (immunoblot)” value is “preserved the expression of occludin”. Further, in the assay on ZO-1, the “ZO-1 expression (immunoblot)” value is “preserved the expression of occludin and ZO-1”. Further, the “brain water content (cerebral edema)” value in assay [1] was “this effect was blunted by adropin treatment”.
